Experimental findings from patent US20240076287A1, “SOLID FORMS OF A CDK2 INHIBITOR” (PFIZER INC., priority 2020, published 2024) are described below.

Data set [1] can be described thus: moisture sorption (DVS) study. Type of data set: physicochemical.
Data set [2] is described as follows: slurry stability experiments (solid form by PXRD). Type of data set: physicochemical. The note with it: for Final Form: slurry in 2-propanol/water, Aw 0.9. The method, then: Slurry experiments were conducted as follows. The indicated starting form of PF-07104091 was transferred to a 2 mL vial. The indicated solvent or solvent mixture was added to obtain a slurry at the specified temperature (Table 14). Additional solids were added as necessary to ensure a sufficiently thick slurry. A magnetic stir bar was added and the vial was tightly capped to prevent solvent loss. The resulting slurry was left to stir at the specified temperature. Aliquots were pulled from the slurry periodically or after a certain duration. Solids were separated from the liquid by centrifuge filtration and the solids were characterized by powder x-ray diffraction. […] (ambient), and 40° C.

Each structure is given as a SMILES string.

Take `COCc1cc(C(=O)Nc2cc([C@H]3CC[C@@H](OC(=O)NC(C)C)C3)[nH]n2)n(C)n1` [PF-07104091 (Form 2), (1R,3S)-3-[3-({[3-(methoxymethyl)-1-methyl-1H-pyrazol-5-yl]carbonyl}amino)-1H-pyrazol-5-yl]cyclopentyl propan-2-ylcarbamate]: the “solid form of the post moisture sorption material” value in data set [1] (PXRD after DVS) is reported as “no change in solid form”. The mass gain in data set [1] (at 60% RH) was roughly 0.7%; in data set [1] (at 75% RH), roughly 1%; in data set [1] (at 90% RH), roughly 1.6%. The hygroscopicity entry in data set [1] (moisture sorption (DVS)) is on record as “slightly hygroscopic”.

On to `COCc1cc(C(=O)Nc2cc([C@H]3CC[C@@H](OC(=O)NC(C)C)C3)[nH]n2)n(C)n1` [Form 1, (1R,3S)-3-[3-({[3-(methoxymethyl)-1-methyl-1H-pyrazol-5-yl]carbonyl}amino)-1H-pyrazol-5-yl]cyclopentyl propan-2-ylcarbamate], for which the “Final Form” value in data set [2] (4 °C) and in data set [2] (ambient) was “Form 3” in each case.

With `COCc1cc(C(=O)Nc2cc([C@H]3CC[C@@H](OC(=O)NC(C)C)C3)[nH]n2)n(C)n1` [PF-07104091 monohydrate (Form 3), (1R,3S)-3-[3-({[3-(methoxymethyl)-1-methyl-1H-pyrazol-5-yl]carbonyl}amino)-1H-pyrazol-5-yl]cyclopentyl propan-2-ylcarbamate], the “thermodynamic stability of the solid form” value in data set [2] (at 4° C., ˜25° C. (ambient), and 40° C.) is given as “thermodynamically most stable form”.
